The results in this text go back to patent publication US10221163B2 (priority 2015, dated 2019).

Where two headings read alike, the source gives them in different places.

The target of data set [1] is IMP-1 (Serratia marcescens, UniProt P52699). As to the kind of experiment: biochemical. The class given is biochemical. The note with it: fluorescence assay, CCF2-FA substrate, 2 pM enzyme, 2 hours at 25° C.; read-out: IMP-1 IC50. The procedure, abridged:
(§1)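 Inhibitor was mixed with the metallo-β-lactamase and CCF2-FA. After 2 hours at 25° C, fluorescence of the coumarin–fluorescein cephalosporin substrate was read. IC50 was calculated with a 4-parameter fit.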

The target of data set [2] is NDM-1 (Klebsiella pneumoniae, UniProt C7C422). The data set is described as follows: biochemical. The class given is biochemical. The note with it: fluorescence assay, CCF2-FA substrate, 1 pM enzyme, 2 hours at 25° C.; read-out: NDM-1 IC50. The procedure, abridged: as §1
Sequence of NDM-1 (C7C422 whole entry, looked up, species assumed): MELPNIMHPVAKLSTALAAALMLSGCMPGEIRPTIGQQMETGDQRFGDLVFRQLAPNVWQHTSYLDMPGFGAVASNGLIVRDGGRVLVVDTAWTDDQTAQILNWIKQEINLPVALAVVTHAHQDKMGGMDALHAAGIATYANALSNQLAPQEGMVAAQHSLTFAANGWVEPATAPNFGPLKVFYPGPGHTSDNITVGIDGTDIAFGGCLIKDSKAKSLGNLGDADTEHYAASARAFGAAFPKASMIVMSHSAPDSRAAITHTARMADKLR
Data set [3] deals with VIM-1 (Pseudomonas aeruginosa (strain ATCC 15692 / DSM 22644 / CIP 104116 / JCM 14847 / LMG 12228 / 1C / PRS 101 / PAO1), UniProt A0A0F7KYQ8). As to the kind of experiment: biochemical. The note with it: CCF2-FA substrate, 30 pM enzyme, 2 hours at 25° C. The procedure, abridged: as §1
Data set [4] has as its system Escherichia coli expressing NDM-1 (CLB30005, CLB30016). The class given is cell-based. The settings on record: NDM-1 strain, with imipenem 1 μg/ml, 95% inhibition of growth. The procedure, abridged:
(§2)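 Clinical isolates (E. coli NDM-1, S. marcescens IMP-1, K. pneumoniae VIM-1) were diluted 1:100 from saline suspension into 1.1×CAMHB and exposed to test compound with imipenem at 1 μg/ml. Plates were incubated at 35° C for 22 hours to 24 hours, and growth was read by absorbance.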

Data set [5] deals with Klebsiella pneumoniae expressing VIM-1 (IHMA599644). In kind it is cell-based. The settings on record: VIM-1 strain IHMA599644, with imipenem 1 μg/ml, 95% inhibition of growth. The procedure, abridged:
as §2

The test system of data set [6] is Serratia marcescens expressing IMP-1 (CL5741). The class given is cell-based. The settings on record: IMP-1 strain CL5741, with imipenem 1 μg/ml, 95% inhibition of growth. The procedure, abridged: as §2
In data set [7] the test system is Pseudomonas aeruginosa efflux+ (MB9798), IMP-1. In kind it is cell-based. Also noted: Concentration of metallo-β-lactamase inhibitor which restores susceptibility of efflux + (MB9798) strain to imipenem: unit not given here. The note with it: efflux+ MB9798; imipenem at 2 μg/mL; in the presence of a class A, C, D serine β-lactamase inhibitor closely related to relebactam. The procedure, abridged:
(§3)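 P. aeruginosa PAO1-derived IMP-1 strains, efflux+ MB9798 and efflux− MB9799, tested by standard microbroth MIC with imipenem and/or ceftazidime fixed, usually at CLSI breakpoint, plus fixed class A/C β-lactamase inhibitor against AmpC. Inhibitor titrated; concentration restoring susceptibility recorded; MB9798/MB9799 fold difference indicates efflux.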

In data set [8] the test system is Pseudomonas aeruginosa efflux− (MB9799), IMP-1. The class given is cell-based. The settings on record: efflux− MB9799; imipenem at 2 μg/mL; in the presence of a class A, C, D serine β-lactamase inhibitor closely related to relebactam. The procedure, abridged: as §3
Data set [9] relates to Pseudomonas aeruginosa MB9798 vs MB9799. The note with it: fold difference between efflux+ (MB9798) and efflux− (MB9799) strains; imipenem at 2 μg/mL. The procedure, abridged: as §3
Where [10] appears, read: fluorescence assay, read-out: VIM-1 IC50.

Sequence of IMP-1 (P52699 whole entry, looked up, species assumed): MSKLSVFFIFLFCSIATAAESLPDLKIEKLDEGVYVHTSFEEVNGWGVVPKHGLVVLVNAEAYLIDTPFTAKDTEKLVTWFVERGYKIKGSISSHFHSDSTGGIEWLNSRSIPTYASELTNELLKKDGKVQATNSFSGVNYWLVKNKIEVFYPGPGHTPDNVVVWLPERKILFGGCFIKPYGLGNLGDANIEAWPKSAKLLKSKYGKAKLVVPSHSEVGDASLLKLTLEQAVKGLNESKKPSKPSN

For the molecule `NCCNS(=O)(=O)c1ccc(-c2cccc3[nH]c([C@@H]4C[C@@H](O)CN4)nc23)c(-c2nn[nH]n2)c1S(N)(=O)=O` [Example 444, N1-(2-aminoethyl)-4-(2-((2S,4R)-4-hydroxypyrrolidin-2-yl)-1H-benzo[d]imidazol-4-yl)-3-(2H-tetrazol-5-yl)benzene-1,2-disulfonamide], the IC50 is 1590 pM in data set [1]; 236 pM in [2]; 235 pM in data set [3] (VIM-1 IC50, fluorescence assay). For the same molecule, the “Escherichia coli MITC95” value in [4] amounted to 1.563 µM. Further, the “Klebsiella pneumoniae MITC95” value in data set [5] is 3.125 µM. Moreover, the “Serratia marcescens MITC95” value in data set [6] came out at 3.125 µM. In [7], the “Concentration of metallo-β-lactamase inhibitor which restores susceptibility of efflux + (MB9798) strain to imipenem” value was determined as 1.563. Also, in data set [8], the “Concentration of metallo-β-lactamase inhibitor which restores susceptibility of efflux − (MB9799) strain to imipenem” value came out at 1.563. Moreover, in [9], the Efflux ratio was 1.00.

As for `NCCNS(=O)(=O)c1ccc(-c2cccc3[nH]c(C(F)(F)CN)nc23)c(-c2nn[nH]n2)c1S(N)(=O)=O` [Example 445, 4-(2-(2-amino-1,1-difluoroethyl)-1H-benzo[d]imidazol-4-yl)-N1-(2-aminoethyl)-3-(2H-tetrazol-5-yl)benzene-1,2-disulfonamide], the IC50 is 370 pM in data set [1], 44.6 pM in data set [2] and 114 pM in [3] (setting [10]). Also, in data set [4], the “Escherichia coli MITC95” value turned out to be 3.125 µM. For the same molecule, the “Klebsiella pneumoniae MITC95” value in data set [5] worked out at 3.125 µM. For the same molecule, the “Serratia marcescens MITC95” value in data set [6] amounted to 3.125 µM. Moreover, in data set [7], the “Concentration of metallo-β-lactamase inhibitor which restores susceptibility of efflux + (MB9798) strain to imipenem” value was 1.563. Further, in [8], the “Concentration of metallo-β-lactamase inhibitor which restores susceptibility of efflux − (MB9799) strain to imipenem” value is recorded as 1.563. In addition, the Efflux ratio in data set [9] was determined as 1.00.

Consider `NCC(F)(F)c1nc2c(-c3ccc(S(=O)(=O)N[C@H]4CCNC4)c(S(N)(=O)=O)c3-c3nn[nH]n3)cccc2[nH]1` [Example 446, (S)-4-(2-(2-amino-1,1-difluoroethyl)-1H-benzo[d]imidazol-4-yl)-N1-(pyrrolidin-3-yl)-3-(2H-tetrazol-5-yl)benzene-1,2-disulfonamide], for which the IC50 stood at 446 pM in [1], 56.9 pM in [2] and 153 pM in data set [3] (setting [10]). Besides, in data set [4], the “Escherichia coli MITC95” value amounted to 1.563 µM. In addition, in data set [5], the “Klebsiella pneumoniae MITC95” value was determined as 3.125 µM. The “Serratia marcescens MITC95” value in data set [6] was 3.125 µM. The “Concentration of metallo-β-lactamase inhibitor which restores susceptibility of efflux + (MB9798) strain to imipenem” value in data set [7] is 3.125. For the same molecule, in data set [8], the “Concentration of metallo-β-lactamase inhibitor which restores susceptibility of efflux − (MB9799) strain to imipenem” value stood at 1.563. Moreover, the Efflux ratio in data set [9] is 2.00.

Regarding `NCCNC(=O)c1cc(Cl)cc(-c2ccc(S(=O)(=O)NCCN)c(S(N)(=O)=O)c2-c2nn[nH]n2)c1N` [Example 447, 2-Amino-N-(2-aminoethyl)-4′-(N-(2-aminoethyl)sulfamoyl)-5-chloro-3′-sulfamoyl-2′-(2H-tetrazol-5-yl)-[1,1′-biphenyl]-3-carboxamide], the IC50 came to 1600 pM in [1]; 646 pM in data set [2]; 180 pM in data set [3] (VIM-1 IC50, fluorescence assay). In addition, the “Escherichia coli MITC95” value in [4] is 0.7813 µM. Moreover, the “Klebsiella pneumoniae MITC95” value in data set [5] was 1.563 µM. Besides, the “Serratia marcescens MITC95” value in [6] worked out at 0.7813 µM. The “Concentration of metallo-β-lactamase inhibitor which restores susceptibility of efflux + (MB9798) strain to imipenem” value in data set [7] is 1.563. Besides, the “Concentration of metallo-β-lactamase inhibitor which restores susceptibility of efflux − (MB9799) strain to imipenem” value in data set [8] is given as 0.7813. For the same molecule, the Efflux ratio in data set [9] came to 2.00.

Regarding `Nc1nc2c(-c3ccc(S(=O)(=O)N[C@@H]4C[C@H]4N)c(S(N)(=O)=O)c3-c3nnn[nH]3)cccc2[nH]1` [Example 448, 4-(2-amino-1H-benzo[d]imidazol-4-yl)-N^1-((1R,2R)-2-aminocyclopropyl)-3-(1H-tetrazol-5-yl)benzene-1,2-disulfonamide], the IC50 stood at 988 pM in data set [1], 151 pM in [2] and 557 pM in data set [3] (setting [10]). The “Escherichia coli MITC95” value in data set [4] came out at 0.7813 µM. The “Klebsiella pneumoniae MITC95” value in data set [5] worked out at 6.25 µM. Moreover, the “Serratia marcescens MITC95” value in data set [6] stood at 1.563 µM. Further, in data set [7], the “Concentration of metallo-β-lactamase inhibitor which restores susceptibility of efflux + (MB9798) strain to imipenem” value was determined as 1.563. Also, the “Concentration of metallo-β-lactamase inhibitor which restores susceptibility of efflux − (MB9799) strain to imipenem” value in [8] stood at 3.125. In [9], the Efflux ratio amounted to 0.50.

For `CN(CCN)S(=O)(=O)c1ccc(-c2cccc3[nH]c(N)nc23)c(-c2nn[nH]n2)c1S(N)(=O)=O` [Example 449, 4-(2-amino-1H-benzo[d]imidazol-4-yl)-N^1-(2-aminoethyl)-N^1-methyl-3-(2H-tetrazol-5-yl)benzene-1,2-disulfonamide], the IC50 came out at 11800 pM in data set [1]; 7730 pM in [2]; 27800 pM in [3] (VIM-1 IC50, fluorescence assay). Moreover, in data set [4], the “Escherichia coli MITC95” value stood at 0.7813 µM. For the same molecule, the “Klebsiella pneumoniae MITC95” value in [5] turned out to be 12.5 µM. In addition, in data set [6], the “Serratia marcescens MITC95” value stood at 1.563 µM. In data set [7], the “Concentration of metallo-β-lactamase inhibitor which restores susceptibility of efflux + (MB9798) strain to imipenem” value came out at 6.25. Moreover, the “Concentration of metallo-β-lactamase inhibitor which restores susceptibility of efflux − (MB9799) strain to imipenem” value in data set [8] is 1.563. Further, in data set [9], the Efflux ratio was 4.00.

Turning to `NCCNC(=O)c1cc(-c2ccc(S(=O)(=O)NCCN)c(S(N)(=O)=O)c2-c2nn[nH]n2)ccc1N` [Example 451, 4-Amino-N-(2-aminoethyl)-4′-(N-(2-aminoethyl)sulfamoyl)-3′-sulfamoyl-2′-(2H-tetrazol-5-yl)-[1,1′-biphenyl]-3-carboxamide], the IC50 is 4020 pM in data set [1], 1700 pM in data set [2] and 557 pM in data set [3] (setting [10]). Moreover, the “Escherichia coli MITC95” value in data set [4] was 0.7813 µM. Besides, in [5], the “Klebsiella pneumoniae MITC95” value is 0.7813 µM. The “Serratia marcescens MITC95” value in data set [6] turned out to be 0.7813 µM. For the same molecule, in data set [7], the “Concentration of metallo-β-lactamase inhibitor which restores susceptibility of efflux + (MB9798) strain to imipenem” value is listed as 1.563. The “Concentration of metallo-β-lactamase inhibitor which restores susceptibility of efflux − (MB9799) strain to imipenem” value in data set [8] is 0.7813. In data set [9], the Efflux ratio amounted to 2.00.

For `NCCNS(=O)(=O)c1ccc(-c2ccccc2NC(=O)CN)c(-c2nn[nH]n2)c1S(N)(=O)=O` [Example 452], the IC50 was 6210 pM in data set [1], 1720 pM in [2] and 994 pM in data set [3] (setting [10]). Besides, in data set [4], the “Escherichia coli MITC95” value amounted to 3.125 µM. The “Klebsiella pneumoniae MITC95” value in data set [5] came out at 6.25 µM. In data set [6], the “Serratia marcescens MITC95” value was 3.125 µM. In data set [7], the “Concentration of metallo-β-lactamase inhibitor which restores susceptibility of efflux + (MB9798) strain to imipenem” value worked out at 6.25. Further, the “Concentration of metallo-β-lactamase inhibitor which restores susceptibility of efflux − (MB9799) strain to imipenem” value in data set [8] is recorded as 1.563. In addition, the Efflux ratio in data set [9] was 4.00.

`NCCNS(=O)(=O)c1ccc(-c2cccc(NC(=O)[C@@H](N)CN)c2)c(-c2nn[nH]n2)c1S(N)(=O)=O` [Example 453, (S)-2,3-Diamino-N-(4′-(N-(2-aminoethyl)sulfamoyl)-3′-sulfamoyl-2′-(2H-tetrazol-5-yl)-[1,1′-biphenyl]-3-yl)propanamide]: the figures for the IC50 in data set [1], in data set [2] and in data set [3] (setting [10]) were 3520 pM, 870 pM and 244 pM, respectively. The “Escherichia coli MITC95” value in data set [4] worked out at 1.563 µM. The “Klebsiella pneumoniae MITC95” value in data set [5] worked out at 3.125 µM. The “Serratia marcescens MITC95” value in data set [6] came to 3.125 µM. In data set [7], the “Concentration of metallo-β-lactamase inhibitor which restores susceptibility of efflux + (MB9798) strain to imipenem” value stood at 3.125. The “Concentration of metallo-β-lactamase inhibitor which restores susceptibility of efflux − (MB9799) strain to imipenem” value in [8] turned out to be 1.563. Moreover, the Efflux ratio in [9] stood at 2.00.

`NCCNS(=O)(=O)c1ccc(-c2cccc(NC(=O)[C@H](N)CO)c2)c(-c2nn[nH]n2)c1S(N)(=O)=O` [Example 454, (R)-2-amino-N-(4′-(N-(2-aminoethyl)sulfamoyl)-3′-sulfamoyl-2′-(2H-tetrazol-5-yl)-[1,1′-biphenyl]-3-yl)-3-hydroxypropanamide]: the IC50 in [1] was determined as 3460 pM; in data set [2] it was 757 pM; in [3] (setting [10]), 262 pM. Further, the “Escherichia coli MITC95” value in data set [4] is 1.563 µM. Also, the “Klebsiella pneumoniae MITC95” value in data set [5] was found to be 6.25 µM. Also, the “Serratia marcescens MITC95” value in data set [6] was found to be 3.125 µM. The “Concentration of metallo-β-lactamase inhibitor which restores susceptibility of efflux + (MB9798) strain to imipenem” value in data set [7] worked out at 3.125. For the same molecule, in [8], the “Concentration of metallo-β-lactamase inhibitor which restores susceptibility of efflux − (MB9799) strain to imipenem” value was found to be 1.563. For the same molecule, in data set [9], the Efflux ratio was 2.00.
